Patent US11992475B1, “Application of Z-ligustilide in resisting rotaviruses” (GUANGDONG MEDICAL UNIVERSITY, priority 2023, dated 2024)

Columns and labels:
[1] = system: RV (Wa strain RV); assay: Effect of Z-ligustilide in resisting RV synthesis (MTT, MA104 cells); type: cell-based, Rotavirus (RV); details: for inhibition rate against RV (resisting biosynthesis): drug after virus, 48 h
Description: (§1) The formula of the viral inhibition rate is: {(Adrug group−Avirus group)/(Anormal group−Avirus group)×100%}
100TCID50 virus solution (the virus acts with 10 μg/mL pancreatin for 30 min) is added in a 96-well culture plate of MA104-2 cells that grow to a single layer, at an amount of 100 μL/well. The cells have been washed twice with PBS. A normal cell control group is set, and added with an equal volume of DMEM culture solution. Incubation is conducted in 5% CO2 at 37° C. for 2 h, the virus solution is sucked out, and drug solution and ribavirin of different concentrations are added respectively at an amount of 100 μL/well. A viral control group is set, and only added with the cell maintenance medium at an amount of 100 μL/well. Incubation is conducted in 5% CO2 at 37° C. for continuous observation. After continuous culture for 48 h, an MTT kit is used for detection. 1/10 volume of MTT solution is added in each well and incubated in an incubator. After 4 h, the supernatant is sucked out, DMSO is added, and the absorbance is measured and recorded at a wavelength of 490 nm. The experiment is repeated for 3 times. The viral inhibition rate of the drug is calculated.

[2] = system: structural protein VP6 of RV; assay: Gene expression level of structural protein VP6 of RV in RV-infected MA104 cells (real time PCR); type: cell-based, Rotavirus (RV), Wa strain; details: for VP6 expression level compared with the RV group: 48 h, GAPDH internal reference
Description: (1) To further verify whether Z-ligustilide has an effect of inhibiting RV synthesis, after Z-ligustilide inhibits RV synthesis for 48 h, drug groups of low, medium and high concentrations, the ribavirin group, the N group and the RV group are selected, the supernatant is removed, the solution is washed twice with PBS, 1 ml of Trizol reagent is added, and then the solution is collected into a 1.5 mL enzyme-free EP tube after standing for 5 min. 200 μL of chloroform is added in the tube. After vortex oscillation for 15 s, the solution is stood at room temperature for 3 min, and centrifuged (4° C., 12000 r/min, 15 min). The centrifuged sample is divided into three layers: a colorless upper layer, a white middle layer and a red lower layer.
(2) The supernatant is carefully sucked into a new 1.5 mL enzyme-free EP tube (with a volume of about 500 μL), and an equal volume of pre-cooled isopropanol is added. The solution is shaken up and down violently, mixed well, stood at 4° C. for 10 min, and centrifuged (4° C., 12000 r/min, 10 min).
(3) After centrifugation, white precipitate can be seen at the bottom of the EP tube. The supernatant is removed, and the precipitate is retained. 1 mL of the prepared 75% ethanol solution (prepared from anhydrous ethanol and enzyme-free water at a ratio of 3:1) is added, shaken and mixed well, and centrifuged (4° C., 12000 r/min, 5 min). The supernatant is discarded, and the solution is stood at room temperature for 15-20 min for drying.
(4) After drying, 20 μL of DEPC water is added in the EP tube, and the tube wall is gently blown to dissolve RNA. The RNA concentration of the sample is determined by a NanoDrop micro ultraviolet spectrophotometer, and then the sample can be used directly for the experiment or stored at −80° C. for later use.
A reaction mixture is prepared on ice according to the following components in a reaction volume of 20 μL in accordance with the instructions of Evo M-MLV RT Kit with gDNA Clean for qPCR II. The consumables used in the experiment are all Axygen enzyme-free consumables.
Reaction conditions: 42° C. 2 min, 4° C.
The reaction solution is prepared according to the following table, and the reverse transcription reaction is performed.
Reaction conditions: 37° C. 15 min, 85° C. 5 sec, 4° C.
Real time quantitative PCR is used to detect the control group and the RVWa strain-infected group by SYBR Green I fluorescent labeling. SYBR® Green Premix Pro Taq HS qPCR Kit II is used, and GAPDH is selected as the internal reference. In the experiment, dedicated real-time eight-row PCR tubes for Axygen are used for preparing a real-time fluorescence quantitative PCR amplification reaction system according to the following table, and the reaction solution is prepared on ice (the total reaction system is 10 μL).

[3] = system: RV (Wa strain RV); assay: Effect of Z-ligustilide in resisting RV adsorption (MTT, MA104 cells); type: cell-based, Rotavirus (RV); details: for inhibition rate against RV (resisting adsorption): drug 2 h before virus, 48 h
Description: The drug solution is added in a 96-well culture plate of MA104 cells that grow to a single layer, and each drug solution is added in 6 wells at an amount of 100 μL/well. An equal volume of ribavirin is added to the positive control group, and only an equal volume of DMEM culture solution (without serum) is added to the normal cell control group and the viral control group. Incubation is conducted in 5% CO2 at 37° C. for 2 h. The drug solution is sucked out. Except the normal cell control group, 100TCID50 virus is added (the virus acts with 10 μg/mL pancreatin at 37° C. for 30 min) at an amount of 100 μL/well. Incubation is conducted in 5% CO2 at 37° C. for 2 h. The virus is sucked out, the cell maintenance medium is added at an amount of 200 μL/well. Incubation is conducted in 5% CO2 at 37° C. for continuous observation. After culture for 48 h, an MTT kit is used for detection. 1/10 volume of MTT solution is added in each well and incubated in an incubator. After 4 h, the supernatant is sucked out, DMSO is added, and the absorbance is measured and recorded at a wavelength of 490 nm. The experiment is repeated for 3 times.
as §1

[4] = system: RV (Wa strain RV); assay: Effect of Z-ligustilide in directly killing RV (MTT, MA104 cells); type: cell-based, Rotavirus (RV); details: for inhibition rate against RV (directly killing): drug mixed with virus 2 h, 48 h
Description: The drug is mixed with 100TCID50 virus solution (the virus acts with 10 μg/mL pancreatin for 30 min) at an equal volume to act for 2 h. After the cells are washed twice with PBS, the cells are added in a 96-well culture plate of MA104 cells that grow to a single layer. The same operation as above is conducted for ribavirin and RV in the positive control group, and only an equal volume of DMEM is added to the normal cell control group and the viral control group. Incubation is conducted in 5% CO2 at 37° C. for 2 h, the mixed solution is sucked out, and the cell maintenance medium is added at an amount of 100 μL/well. Incubation is conducted in 5% CO2 at 37° C. for continuous observation. After continuous culture for 48 h, an MTT kit is used for detection. 1/10 volume of MTT solution is added in each well and incubated in an incubator. After 4 h, the supernatant is sucked out, DMSO is added, and the absorbance is measured and recorded at a wavelength of 490 nm. The experiment is repeated for 3 times. The viral inhibition rate of the drug is calculated. The formula of the viral inhibition rate is: {(Adrug group−Avirus group)/(Anormal group−Avirus group)×100%}

[5] = system: MA104 cells; assay: Toxicity of Z-ligustilide to MA104 cells (MTT assay); type: cell-based; details: 48 h
Description: According to the common drug concentration range of Z-ligustilide, the cytotoxicity pre-experiment is performed in the range of 1-100 μM in this experiment. The MA104 cells at the logarithmic phase are observed under a microscope, the cellular morphology is uniform and full with clear edges, and when the number reaches 80%, digestion, centrifugation and re-suspension are conducted. After further dilution, 10 μl of the suspension is taken on a blood cell counting plate to count and calculate the required cell volume. Then, the cells are laid in a 96-well plate, 100 μl of cell suspension is added in each well, and the cell density is 8×10^4 cells/mL. When the cells adhere to the wall to form a single layer, the drug group is administered, and the normal group is added with an equal volume of DMEM (without serum). After incubation for 48 h, the cytotoxicity of Z-ligustilide is detected by MTT reagent. 1/10 volume of MTT solution is added in each well and incubated in an incubator. After 4 h, the solution in the wells is sucked out, 150 μL of DMSO is added in each well, and the absorbance is measured and recorded at a wavelength of 490 nm under the condition of oscillation for 30 s.
The formula of the relative survival rate of the cells is: {(Aexperimental group−Ablank)/(Acontrol group−Ablank)×100%}

[6] = 1st of six values printed for 65-90 μM
[7] = 2nd of six values printed for 65-90 μM
[8] = 3rd of six values printed for 65-90 μM
[9] = 4th of six values printed for 65-90 μM
[10] = 5th of six values printed for 65-90 μM
[11] = 6th of six values printed for 65-90 μM

In the case of CCC/C=C1\OC(=O)C2=C1CCC=C2 [Z-ligustilide], the “effect of inhibiting RV biosynthesis” value [1] is reported as “has an effect of inhibiting RV biosynthesis”, the “inhibition rate against RV (resisting biosynthesis)” value ([1]; 80 µM, without statistical difference from the ribavirin group) is reported as 64.21% and the “inhibition of rotavirus biosynthesis” value ([1]; 70-85 μM) is reported as “can effectively inhibit rotavirus biosynthesis”. The “inhibition rate against RV (resisting biosynthesis)” value ([1]; 70-85 μM) was “more than 50%”, the “VP6 expression level compared with the RV group” value ([2]; 75 μM) was “significantly decreased” and the “VP6 expression level compared with the RV group” value ([2]; 80 μM) was “significantly decreased”. For the same molecule, the “VP6 expression level compared with the RV group” value ([2]; 85 μM) was “significantly decreased”, the “concentration at which VP6 expression is inhibited most significantly” value ([2]; among 75 μM, 80 μM and 85 μM) was 75 µM and the “inhibition rate against RV (resisting adsorption)” value [3, 6] was 4.85%. The “inhibition rate against RV (resisting adsorption)” value [3, 7] was 4.55%, the “inhibition rate against RV (resisting adsorption)” value [3, 8] was 1.14% and the “inhibition rate against RV (resisting adsorption)” value [3, 9] was 3.95%. The “inhibition rate against RV (resisting adsorption)” value [3, 10] was 3.01%, the “inhibition rate against RV (resisting adsorption)” value [3, 11] was 4.69% and the “effect of resisting RV adsorption” value ([3]; 65-90 μM) was “no obvious effect”. For the same molecule, the “maximum inhibition rate (resisting adsorption)” value ([3]; within 65-90 μM) was “about 4.85%”, the “inhibition rate against RV (directly killing)” value [4, 6] was 2.32% and the “inhibition rate against RV (directly killing)” value [4, 7] was 3.25%. The “inhibition rate against RV (directly killing)” value [4, 8] was 0.93%, the “inhibition rate against RV (directly killing)” value [4, 9] was 0.4% and the “inhibition rate against RV (directly killing)” value [4, 10] was 6.45%. The “inhibition rate against RV (directly killing)” value [4, 11] was 5.89%, the “effect of directly killing RV” value ([4]; 65-90 μM) was “no obvious effect” and the “drug toxicity to the cells” value ([5]; 60-95 μM) was “no drug toxicity”. The “cell viability versus the normal group” value ([5]; 65-90 μM) was “no significant difference” and the average survival rate ([5]; drug concentration 60-95 μM) was “more than 95%”.
